Experimental data: US11603355B2, “Charged ion channel blockers and methods for use” (Nocion Therapeutics, Inc., priority 2019, dated 2023)
Counter-ions that a name gives are not always drawn.

What follows are compounds tested against T1, NaV1.7 (Homo sapiens, UniProt Q15858) (assay: Automated patch clamp (Qube 384), internal block of NaV1.7). Details: IC50, compound in internal solution, HEK293 cells, read-out: Nav1.7 Intracellular Inhibition.
T1 construct: expressed in transfected cells; host or cells: HEK293 (tetracycline-inducible)
T1 sequence (Q15858 whole entry): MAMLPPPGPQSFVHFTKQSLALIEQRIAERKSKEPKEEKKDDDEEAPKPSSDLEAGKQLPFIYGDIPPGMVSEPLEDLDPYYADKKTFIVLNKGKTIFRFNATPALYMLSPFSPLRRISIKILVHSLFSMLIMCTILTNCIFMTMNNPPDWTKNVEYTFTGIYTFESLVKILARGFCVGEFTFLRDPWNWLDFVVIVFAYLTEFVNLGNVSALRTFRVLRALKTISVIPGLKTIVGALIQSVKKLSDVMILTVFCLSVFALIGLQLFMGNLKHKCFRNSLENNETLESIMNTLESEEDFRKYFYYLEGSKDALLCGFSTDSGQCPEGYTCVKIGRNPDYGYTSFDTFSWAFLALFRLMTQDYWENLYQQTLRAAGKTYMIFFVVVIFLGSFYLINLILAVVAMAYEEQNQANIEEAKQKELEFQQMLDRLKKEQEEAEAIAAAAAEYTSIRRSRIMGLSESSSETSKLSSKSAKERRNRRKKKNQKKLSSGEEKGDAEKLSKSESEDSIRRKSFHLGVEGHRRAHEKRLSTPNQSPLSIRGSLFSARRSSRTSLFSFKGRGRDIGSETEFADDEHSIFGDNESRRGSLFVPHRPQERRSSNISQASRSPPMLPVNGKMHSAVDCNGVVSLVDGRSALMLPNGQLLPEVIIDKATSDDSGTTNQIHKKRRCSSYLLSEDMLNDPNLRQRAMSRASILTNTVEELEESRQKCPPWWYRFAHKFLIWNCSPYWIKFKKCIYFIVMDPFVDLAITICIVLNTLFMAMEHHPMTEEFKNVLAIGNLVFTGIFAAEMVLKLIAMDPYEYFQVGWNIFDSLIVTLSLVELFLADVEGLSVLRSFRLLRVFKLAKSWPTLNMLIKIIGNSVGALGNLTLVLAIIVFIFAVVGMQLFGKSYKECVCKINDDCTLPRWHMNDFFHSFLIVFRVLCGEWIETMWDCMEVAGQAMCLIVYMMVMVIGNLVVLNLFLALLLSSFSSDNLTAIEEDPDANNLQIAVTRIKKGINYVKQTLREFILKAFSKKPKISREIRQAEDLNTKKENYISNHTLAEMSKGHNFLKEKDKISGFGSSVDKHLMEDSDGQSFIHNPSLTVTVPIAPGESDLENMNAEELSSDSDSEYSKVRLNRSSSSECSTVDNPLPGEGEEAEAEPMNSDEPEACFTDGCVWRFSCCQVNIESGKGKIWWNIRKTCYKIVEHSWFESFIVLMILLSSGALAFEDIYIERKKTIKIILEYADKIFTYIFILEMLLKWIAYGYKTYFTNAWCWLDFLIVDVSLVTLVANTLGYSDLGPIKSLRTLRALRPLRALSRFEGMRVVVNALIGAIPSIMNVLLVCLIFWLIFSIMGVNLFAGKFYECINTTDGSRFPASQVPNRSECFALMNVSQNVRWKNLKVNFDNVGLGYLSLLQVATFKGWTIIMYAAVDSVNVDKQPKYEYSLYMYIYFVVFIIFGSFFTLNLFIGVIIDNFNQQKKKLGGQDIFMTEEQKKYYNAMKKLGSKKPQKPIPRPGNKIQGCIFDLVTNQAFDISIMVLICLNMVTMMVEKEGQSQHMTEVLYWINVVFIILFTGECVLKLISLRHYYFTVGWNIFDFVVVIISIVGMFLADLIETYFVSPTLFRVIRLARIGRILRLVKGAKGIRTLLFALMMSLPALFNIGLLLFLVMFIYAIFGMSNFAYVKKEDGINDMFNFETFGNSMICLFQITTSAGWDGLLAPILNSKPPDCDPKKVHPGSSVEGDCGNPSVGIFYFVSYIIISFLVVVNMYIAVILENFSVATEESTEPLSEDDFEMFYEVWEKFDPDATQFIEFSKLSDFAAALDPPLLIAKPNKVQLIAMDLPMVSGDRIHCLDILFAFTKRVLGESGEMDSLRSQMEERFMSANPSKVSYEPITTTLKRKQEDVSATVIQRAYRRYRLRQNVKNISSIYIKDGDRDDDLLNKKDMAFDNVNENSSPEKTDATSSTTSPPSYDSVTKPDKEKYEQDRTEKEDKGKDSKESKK
Type: cell-based
In short: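 Tetracycline-induced HEK293 cells, whole-cell Qube recording at 22 degrees; compounds dissolved in internal solution (CsF-based, pH 7.3), exchanged after baseline. Held at −100 mV, 10 ms pulses to −20 mV at 5 Hz for 10 min; remaining current (last 3 points) vs baseline, rundown-corrected with no-drug cells; Hill-fit IC50.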
With `CCN(CC)C(=O)C1CCC[N+](CC(=O)Nc2c(C)cccc2C)(Cc2ccccc2)C1` (stereo not drawn) [Compound 66A] the IC50 was 1000 to 3000 nM. `CCOc1cccc(C)c1NC(=O)C[N+]1(Cc2ccccc2)CCCCCC1.[Br-]` [Compound 77A] was tested, and the IC50 was 300 to 1000 nM. In the case of `Cc1cccc(C)c1C(=O)OCC[N+]1(Cc2ccccc2)CCCCCC1.[Br-]` [Compound 82A, 1-benzyl-1-(2-((2,6-dimethylbenzoyl)oxy)ethyl) azepan-1-ium bromide], the IC50 is reported as 300 to 1000 nM. `CCOC(=O)C1CCC[N+](CC(=O)Nc2c(C)cccc2C)(Cc2ccccc2)C1.[Br-]` (stereo not drawn) [Compound 45A, 1-benzyl-1-(2-((2,6-dimethylphenyl)amino)-2-oxoethyl)-3-(ethoxycarbonyl) piperidin-1-ium bromide] showed an IC50 of 300 to 1000 nM. In the case of `Cc1cccc(C)c1N1CCC([N+]2(Cc3ccccc3)CCCCCCC2)C1=O.[Br-]` (stereo not drawn) [Compound 90A], the IC50 is reported as 300 to 1000 nM. For “1-benzyl-1-(2-((2-(dimethylcarbamoyl)-6-methylphenyl) amino)-2-oxoethyl) azepan-1-ium bromide [Compound 81A]”, the IC50 was 300 to 1000 nM. `CC[N+](CC)(CCCc1ccccc1)CC(=O)Nc1c(C)cccc1C.[Br-]` [Compound 86A, N-(2-((2,6-dimethylphenyl)amino)-2-oxoethyl)-N, N-diethyl-3-phenylpropan-1-aminium bromide] was tested, and the IC50 was 1000 to 3000 nM. Compound `COc1cccc(C)c1NC(=O)C[N+]1(Cc2ccccc2)CCCCCC1` [Compound 71A] has an IC50 of 300 to 1000 nM. `COC(=O)c1ccccc1C[N+]1(CC(=O)Nc2c(C)cccc2C)CCCCC1.[Br-]` [Compound 37A, 1-(2-((2,6-dimethylphenyl)amino)-2-oxoethyl)-1-(2-(methoxycarbonyl)benzyl) piperidin-1-ium bromide] was tested, and the IC50 was 300 to 1000 nM. With `CCCNC(=O)C1CCC[N+](CC(=O)Nc2c(C)cccc2C)(Cc2ccccc2)C1` (stereo not drawn) [Compound 57A] the IC50 was 300 to 1000 nM. Work on `CCCc1cccc(C)c1NC(=O)C[N+]1(Cc2ccccc2)CCCCCC1.[Br-]` [Compound 75A] yielded an IC50 of 1000 to 3000 nM. For `Cc1cccc(-c2ccccc2)c1NC(=O)C[N+]1(Cc2ccccc2)CCCCCC1.[Br-]` [Compound 76A], the IC50 was 1000 to 3000 nM. In the case of `Cc1cccc(C)c1N(C)C(=O)C[N+]1(Cc2ccccc2)CCCCCC1` [Compound 38A, 1-benzyl-1-(2-((2,6-dimethylphenyl) (methyl)amino)-2-oxoethyl) azepan-1-ium formate], the IC50 is reported as 1000 to 3000 nM. `COC(=O)C1CC[N+](CC(=O)Nc2c(C)cccc2C)(Cc2ccccc2)CC1.[Br-]` (stereo not drawn) [Compound 44A, 1-benzyl-1-(2-((2,6-dimethylphenyl)amino)-2-oxoethyl)-4-(methoxycarbonyl) piperidin-1-ium bromide] was tested, and the IC50 was < 300 nM. With `CCC(=O)OC1CCC[N+](CC(=O)Nc2c(C)cccc2C)(Cc2ccccc2)C1.[Br-]` (stereo not drawn) [Compound 52A, 1-benzyl-1-(2-((2,6-dimethylphenyl)amino)-2-oxoethyl)-3-(propionyloxy) piperidin-1-ium bromide] the IC50 was < 300 nM. `Cc1cccc(C(C)C)c1NC(=O)C[N+]1(Cc2ccccc2)CCCCCC1.[Br-]` [Compound 74A] showed an IC50 of 300 to 1000 nM. Compound `CCCOC(=O)C1CCC[N+](CC(=O)Nc2c(C)cccc2C)(Cc2ccccc2)C1.[Br-]` (stereo not drawn) [Compound 47A, 1-benzyl-1-(2-((2,6-dimethylphenyl)amino)-2-oxoethyl)-3-(propoxycarbonyl) piperidin-1-ium bromide] has an IC50 of 1000 to 3000 nM. Work on `Cc1cccc(C)c1NC(=O)C[N+]1(Cc2ccccc2)CCCC(C(=O)N(C)C)C1.[Br-]` (stereo not drawn) [Compound 65A] yielded an IC50 of 300 to 1000 nM. Work on `Cc1cccc(C)c1N1CCCC([N+]2(Cc3ccccc3)CCCC2)C1=O.[Br-]` (stereo not drawn) [Compound 91A, 1-benzyl-1-(1-(2,6-dimethylphenyl)-2-oxopiperidin-3-yl) pyrrolidin-1-ium bromide] yielded an IC50 of 1000 to 3000 nM. `Cc1cccc(C)c1NC(=O)C[N+]1(Cc2ccccc2)CCCC(C(=O)N2CCCCC2)C1` (stereo not drawn) [Compound 63A] gave an IC50 of 300 to 1000 nM. Compound `Cc1cccc(C)c1NC(=O)C[N+]1(Cc2ccccc2)CCCC(C(=O)NC(C)C)C1` (stereo not drawn) [Compound 56A] has an IC50 of 1000 to 3000 nM. For `COC(=O)c1cccc(C[N+]2(CC(=O)Nc3c(C)cccc3C)CCCCC2)c1.[Br-]` [Compound 35A, 1-(2-((2,6-dimethylphenyl)amino)-2-oxoethyl)-1-(3-(methoxycarbonyl)benzyl) piperidin-1-ium bromide], the IC50 was 1000 to 3000 nM. `Cc1cccc(C)c1NC(=O)C[N+]1(Cc2ccccc2)CCCC(C(N)=O)C1.[Br-]` (mixture of isomers) [Compound 53A, 1-benzyl-3-carbamoyl-1-(2-((2,6-dimethylphenyl)amino)-2-oxoethyl) piperidin-1-ium bromide] showed an IC50 of 300 to 1000 nM. `COC(=O)c1ccc(C[N+]2(CC(=O)Nc3c(C)cccc3C)CCCCC2)cc1.[Br-]` [Compound 36A, 1-(2-((2,6-dimethylphenyl)amino)-2-oxoethyl)-1-(4-(methoxycarbonyl)benzyl) piperidin-1-ium bromide] showed an IC50 of 3000 to 10000 nM. `Cc1cccc(C)c1NC(=O)C[N+]1(Cc2ccccc2)CCCC(C(=O)N2CCCC2)C1` (stereo not drawn) [Compound 62A] showed an IC50 of 300 to 1000 nM. In the case of `[2H]c1c([2H])c([2H])c(C[N+]2(CC(=O)Nc3c(C)cccc3C)CCCCCC2)c([2H])c1[2H].[Cl-]` [Compound 33A, 1-(2-((2,6-dimethylphenyl)amino)-2-oxoethyl)-1-((phenyl-d5)methyl) azepan-1-ium chloride], the IC50 is reported as 300 to 1000 nM. For `Cc1cccc(C)c1NC(=O)C[N+]1(Cc2ccccc2)CCCC(F)(F)C1.[Br-]` (stereo not drawn) [Compound 32A, 1-benzyl-1-(2-((2,6-dimethylphenyl)amino)-2-oxoethyl)-3,3-difluoropiperidin-1-ium bromide], the IC50 was 300 to 1000 nM. With `CCC(=O)Oc1cccc(C)c1NC(=O)C[N+]1(Cc2ccccc2)CCCCCC1.[Br-]` [Compound 80A, 1-benzyl-1-(2-((2-methyl-6-(propionyloxy)phenyl)amino)-2-oxoethyl) azepan-1-ium bromide] the IC50 was 300 to 1000 nM. For `Cc1cccc(C#N)c1NC(=O)C[N+]1(Cc2ccccc2)CCCCCC1.[Br-]` [Compound 72A], the IC50 was 300 to 1000 nM. Work on `Cc1cccc(C)c1N1CCC([N+]2(Cc3ccccc3)CCCCC2)C1=O.[Br-]` (stereo not drawn) [Compound 89A, 1-benzyl-1-(1-(2,6-dimethylphenyl)-2-oxopyrrolidin-3-yl)piperidin-1-ium bromide] yielded an IC50 of 1000 to 3000 nM. For `Cc1cccc(C)c1NC(=O)C[N+]1(Cc2ccccc2)CCCC(C(=O)OC(C)C)C1` (mixture of isomers) [Compound 46A, 1-benzyl-1-(2-((2,6-dimethylphenyl)amino)-2-oxoethyl)-3-(isopropoxycarbonyl) piperidin-1-ium trifluoroacetate salt], the IC50 was 300 to 1000 nM. For `CNC(=O)C1CCC[N+](CC(=O)Nc2c(C)cccc2C)(Cc2ccccc2)C1` (stereo not drawn) [Compound 55A], the IC50 was 300 to 1000 nM. `Cc1cccc(F)c1NC(=O)C[N+]1(Cc2ccccc2)CCCCCC1.[Br-]` [Compound 69A, 1-benzyl-1-(2-((2-fluoro-6-methylphenyl)amino)-2-oxoethyl)azepan-1-ium bromide] showed an IC50 of 300 to 1000 nM. For `CCNC(=O)C1CCC[N+](CC(=O)Nc2c(C)cccc2C)(Cc2ccccc2)C1.[Br-]` (stereo not drawn) [Compound 54A, 1-benzyl-1-(2-((2,6-dimethylphenyl)amino)-2-oxoethyl)-3-(ethylcarbamoyl) piperidin-1-ium bromide], the IC50 was 300 to 1000 nM. `CCCOC(=O)N1CCC[N+](CC(=O)Nc2c(C)cccc2C)(Cc2ccccc2)CC1.[Br-]` (stereo not drawn) [Compound 68A, 1-benzyl-1-(2-((2,6-dimethylphenyl)amino)-2-oxoethyl)-4-(propoxycarbonyl)-1,4-diazepan-1-ium bromide] was tested, and the IC50 was 300 to 1000 nM. `CCCCNc1ccc(NC(=O)C[N+]2(Cc3ccccc3)CCCCCC2)cc1.O=C[O-]` [Compound 41A, 1-benzyl-1-(2-((4-(butylamino)phenyl)amino)-2-oxoethyl) azepan-1-ium formate] gave an IC50 of 3000 to 10000 nM.
